# Data taken from PubChem BioAssay AID342 (DTP/NCI, 2004).
# Values joined by “and” are separate entries in the source; they are usually repeats but may differ in a detail not shown here. Equal values may be shown once.
# Test system: Swiss mice, Sarcoma 180 sc, mean tumor weight T/C
# Assay: NCI In Vivo Anticancer Drug Screen. Data for tumor model Sarcoma 180 (subcutaneous) in Swiss mice
# Settings: endpoint: mean tumor weight, higher = larger tumour
# Method in brief: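 T/C ratio: treated over vehicle-treated controls, measuring survival or tumor size in transplanted-tumor mice.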
# [1] = dose: 62.5 mg/kg/injection, schedule: Q#A X014 (ip), vehicle: carboxymethylcellulose (CMC)
# [2] = dose: 125.0 mg/kg/injection, schedule: Q#A X014 (ip), vehicle: carboxymethylcellulose (CMC)
# [3] = dose: 250.0 mg/kg/injection, schedule: Q#A X014 (ip), vehicle: carboxymethylcellulose (CMC)
# [4] = dose: 125.0 mg/kg/injection, schedule: Q01DX007 (ip), vehicle: saline
smiles,measurement,setting,value
Nc1nc(=O)n(C2CC(O)C(CO)O2)cc1Br (stereo unspecified),T/C,[1],58 % of control
same,T/C,[2],57 % of control
same,T/C,[3],50 % of control
Nc1ccc(C(=O)NCCCC(=O)O)cc1,T/C,"dose: 125.0 mg/kg/injection, schedule: Q01DX007 (ip), vehicle: water",101 % of control
same,T/C,"dose: 500.0 mg/kg/injection, schedule: Q01DX007 (ip), vehicle: water",90 % of control
O=[N+]([O-])c1ccc(O)c([N+](=O)[O-])c1,T/C,"dose: 1325.0 micrograms/kg/injection, schedule: Q01DX007 (ip), vehicle: carboxymethylcellulose (CMC)",69 % of control
same,T/C,"dose: 2650.0 micrograms/kg/injection, schedule: Q01DX007 (ip), vehicle: carboxymethylcellulose (CMC)",96 % of control
same,T/C,"dose: 4300.0 micrograms/kg/injection, schedule: Q01DX007 (ip), vehicle: carboxymethylcellulose (CMC)",71 % of control
same,T/C,"dose: 6625.0 micrograms/kg/injection, schedule: Q01DX007 (ip), vehicle: carboxymethylcellulose (CMC)",79 % of control
O=C1Cc2ccccc2C(=O)N1,T/C,"dose: 15.0 mg/kg/injection, schedule: Q#A X014 (ip), vehicle: carboxymethylcellulose (CMC)",84 % of control
same,T/C,"dose: 30.0 mg/kg/injection, schedule: Q#A X014 (ip), vehicle: carboxymethylcellulose (CMC)",79 % of control
O=[N+]([O-])c1ccc2c(N=Nc3c(O)ccc4ccccc34)c(O)cc(S(=O)(=O)O)c2c1,T/C,"dose: 65.0 mg/kg/injection, schedule: Q01DX007 (ip), vehicle: saline",70 % of control
same,T/C,"dose: 95.0 mg/kg/injection, schedule: Q01DX007 (ip), vehicle: saline",82 % of control
same,T/C,"dose: 145.0 mg/kg/injection, schedule: Q01DX007 (ip), vehicle: saline",66 % of control
same,T/C,"dose: 330.0 mg/kg/injection, schedule: Q01DX007 (ip), vehicle: saline",49 % of control
[N-]=[N+]=NC1(C(=O)O)CCCC1,T/C,"dose: 66.0 mg/kg/injection, schedule: Q01DX007 (ip), vehicle: carboxymethylcellulose (CMC)",71 % of control
same,T/C,"dose: 100.0 mg/kg/injection, schedule: Q01DX007 (ip), vehicle: carboxymethylcellulose (CMC)",60 % of control
same,T/C,"dose: 225.0 mg/kg/injection, schedule: Q01DX007 (ip), vehicle: carboxymethylcellulose (CMC)",63 % of control
O=S(=O)(O)c1cccnc1,T/C,"dose: 17.47 mg/kg/injection, schedule: Q#A X014 (ip), vehicle: carboxymethylcellulose (CMC)",70 % of control
same,T/C,"dose: 31.25 mg/kg/injection, schedule: Q#A X014 (ip), vehicle: carboxymethylcellulose (CMC)",64 % of control
same,T/C,"dose: 34.94 mg/kg/injection, schedule: Q#A X014 (ip), vehicle: carboxymethylcellulose (CMC)",80 % of control
same,T/C,[1],105 % of control
same,T/C,"dose: 69.87 mg/kg/injection, schedule: Q#A X014 (ip), vehicle: carboxymethylcellulose (CMC)",89 % of control
same,T/C,[2],63 % of control
same,T/C,"dose: 139.75 mg/kg/injection, schedule: Q#A X014 (ip), vehicle: carboxymethylcellulose (CMC)",97 % of control
same,T/C,[3],124 % of control
CC1=C2C(=CC(C)(C)[C@@H]2O)C(=O)[C@](C)(O)C12CC2,T/C,"dose: 0.1 mg/kg/injection, schedule: Q01DX007 (ip), vehicle: saline",63 % of control
same,T/C,"dose: 0.2 mg/kg/injection, schedule: Q01DX007 (ip), vehicle: saline",25 % of control
same,T/C,"dose: 0.3 mg/kg/injection, schedule: Q01DX007 (ip), vehicle: saline",57 % of control
same,T/C,"dose: 0.4 mg/kg/injection, schedule: Q01DX007 (ip), vehicle: saline",28 % of control
same,T/C,"dose: 25.0 micrograms/kg/injection, schedule: Q01DX007 (ip), vehicle: saline",70 % of control
same,T/C,"dose: 50.0 micrograms/kg/injection, schedule: Q01DX007 (ip), vehicle: saline",102 % of control
same,T/C,"dose: 100.0 micrograms/kg/injection, schedule: Q01DX007 (ip), vehicle: saline",84 % of control
same,T/C,"dose: 200.0 micrograms/kg/injection, schedule: Q01DX007 (ip), vehicle: saline",100 % of control
CC(C)C(=O)OCC1OC(n2cnc3c(=S)nc(N)[nH]c32)C(OC(=O)C(C)C)C1OC(=O)C(C)C (stereo unspecified),T/C,"dose: 6.0 mg/kg/injection, schedule: Q01DX007 (ip), vehicle: carboxymethylcellulose (CMC)",72 % of control
same,T/C,"dose: 9.0 mg/kg/injection, schedule: Q01DX007 (ip), vehicle: carboxymethylcellulose (CMC)",42 % of control
same,T/C,"dose: 14.0 mg/kg/injection, schedule: Q01DX007 (ip), vehicle: methylcellulose (MC)",42 % of control
same,T/C,"dose: 21.0 mg/kg/injection, schedule: Q01DX007 (ip), vehicle: carboxymethylcellulose (CMC)",5 % of control and 21 % of control
same,T/C,"dose: 21.0 mg/kg/injection, schedule: Q01DX007 (ip), vehicle: methylcellulose (MC)",29 % of control
same,T/C,"dose: 31.0 mg/kg/injection, schedule: Q01DX007 (ip), vehicle: carboxymethylcellulose (CMC)",7 % of control
same,T/C,"dose: 31.0 mg/kg/injection, schedule: Q01DX007 (ip), vehicle: methylcellulose (MC)",22 % of control
CC(=O)Nc1c(Cl)c(Cl)c2c(c1Cl)Cc1cc(F)ccc1-2,T/C,"dose: 62.5 mg/kg/injection, schedule: Q01DX007 (ip), vehicle: saline",78 % of control
same,T/C,"dose: 111.0 mg/kg/injection, schedule: Q01DX007 (ip), vehicle: other",24 % of control
same,T/C,"dose: 111.0 mg/kg/injection, schedule: Q#A X014 (ip), vehicle: saline",31 % of control and 34 % of control
same,T/C,[4],81 % of control
same,T/C,"dose: 166.5 mg/kg/injection, schedule: Q#A X014 (ip), vehicle: saline",28 % of control and 31 % of control
same,T/C,"dose: 250.0 mg/kg/injection, schedule: Q#A X014 (ip), vehicle: saline",18 % of control and 35 % of control
same,T/C,"dose: 333.0 mg/kg/injection, schedule: Q01DX007 (ip), vehicle: other",36 % of control
same,T/C,"dose: 375.0 mg/kg/injection, schedule: Q#A X014 (ip), vehicle: saline",21 % of control
same,T/C,"dose: 500.0 mg/kg/injection, schedule: Q01DX007 (ip), vehicle: other",39 % of control
same,T/C,"dose: 750.0 mg/kg/injection, schedule: Q01DX007 (ip), vehicle: other",32 % of control
CS(C)=O,T/C,"dose: 1000.0 mg/kg/injection, schedule: Q01DX007 (ip), vehicle: other",71 % of control
same,T/C,"dose: 1000.0 mg/kg/injection, schedule: Q#A X014 (ip), vehicle: other",91 % of control
same,T/C,"dose: 1500.0 mg/kg/injection, schedule: Q01DX007 (ip), vehicle: other",84 % of control
same,T/C,"dose: 1500.0 mg/kg/injection, schedule: Q#A X014 (ip), vehicle: other",99 % of control
Cc1cc2c(c3oc(C4(C)OC4C4OC4C)cc(=O)c13)C(=O)c1c(O)c(C3CC(C)(N(C)C)C(O)C(C)O3)cc(C3CC(N(C)C)C(O)C(C)O3)c1C2=O (stereo unspecified),T/C,"dose: 0.05 mg/kg/injection, schedule: Q01DX007 (sc), vehicle: other",100 % of control
same,T/C,"dose: 0.1 mg/kg/injection, schedule: Q01DX007 (sc), vehicle: other",79 % of control
CS(=O)(=O)OCCCl,T/C,"dose: 6.67 mg/kg/injection, schedule: Q#A X014 (ip), vehicle: carboxymethylcellulose (CMC)",92 % of control
same,T/C,"dose: 13.35 mg/kg/injection, schedule: Q01DX007 (ip), vehicle: carboxymethylcellulose (CMC)",117 % of control
same,T/C,"dose: 13.35 mg/kg/injection, schedule: Q#A X014 (ip), vehicle: carboxymethylcellulose (CMC)",95 % of control
same,T/C,"dose: 26.7 mg/kg/injection, schedule: Q01DX007 (ip), vehicle: carboxymethylcellulose (CMC)",106 % of control
same,T/C,"dose: 26.7 mg/kg/injection, schedule: Q#A X014 (ip), vehicle: carboxymethylcellulose (CMC)",86 % of control
same,T/C,"dose: 53.4 mg/kg/injection, schedule: Q01DX007 (ip), vehicle: carboxymethylcellulose (CMC)",100 % of control
same,T/C,"dose: 106.8 mg/kg/injection, schedule: Q01DX007 (ip), vehicle: carboxymethylcellulose (CMC)",94 % of control
CCCCN(C)N=Nc1ccc(CCCC(=O)OCC)cc1,T/C,[4],62 % of control
same,T/C,"dose: 200.0 mg/kg/injection, schedule: Q01DX007 (ip), vehicle: saline",40 % of control
